Experimental data from patent EP3184514A1, “AUTOPHAGY INHIBITORS” (Deutsches Krebsforschungszentrum, priority 2015, dated 2017).

Key:
[1] = target: T1, LC3B (Homo sapiens, UniProt Q9GZQ8); test: AlphaScreen interaction displacement assay (GST-LC3B / biotin-LIRtide); assay type: binding; settings: Table 1-a; n.e. means no effect; read-out: LC3B inhibition cell free IC50
T1 construct: made in house; host or cells: E. coli Rosetta (DE3)
Experimental: The AlphaScreen assay contained 50 mM Tris (pH 7.5), 100 mM NaCl, 0.01% Tween 20, 2 mM DTT, 1 % DMSO and 2-30 nM GST-LC3B and biotin-LIRtide 2-30 nM. The concentrations of GST-LC3B and biotin-LIRtide were experimentally chosen from a cross-titration assay exploring the different combinations of for each batch of protein used and when a new batch of buffer was prepared.
A gene encoding for human LC3B protein inserted in a pET-GST expression vector was used as a template. Rosetta (DE3) competent cells were transformed by started procedure, plated on an LB agar plate with ampicillin (100 µg/ml) and left overnight at 37 °C. Overnight culture was prepared from a single colony and shaken at 180 rpm at 37 °C. LB medium with ampicillin was inoculated with overnight culture (10 ml per 500 ml of LB) and shaken until the optical density at 600 nm (OD600) reached a value of approximately 0.6. Protein expression was then induced with 400 µM IPTG and further incubated for 4 hours. Bacterial culture was centrifuged for 20 minutes at 6000 rpm at 4 °C. The pellet was then resuspended in lysis buffer (20 mM TRIS-HCl pH 7.5, 10 mM EDTA, 5 mM EGTA, 150 mM NaCl, 0.5 % NP40, 1 % Triton X-100, 1 mM DTT, 2 mg/ml lysozyme, 0.05 U/µl benzonase, 1x protease inhibitor cocktail). Lysate was then stored at -20 °C over night. Sample was thawed in water bath and sonicated on ice (40 % amplitude, 30 seconds pulse/30 seconds pause cycle). Lysate was centrifuged at 10000xg at 4 °C for half an hour. Meanwhile, 500 µl of glutathione sepharose beads was equilibrated with lysis buffer and then added to the supernatant. The mixture was incubated and rotated at room temperature for 2 hours. After binding of the protein to the beads, beads were spun down at 500xg at 4 °C for 5 minutes. Pellet was then washed with cold wash buffer at least four times (20 mM Tris-HCl pH 7.5, 10 mM EDTA, 5 mM EGTA, 150 mM NaCl, 1 mM DTT), dried and stored in 5 % glycerol at 4 °C.

[2] = system: LC3B; test: cellular autophagy screening: LC3B spots by immunocytochemistry and automated confocal imaging; assay type: cell-based; settings: Table 1-a; relative to negative DMSO control; 100 µM, 1 hour; n.e. means no effect
Experimental: For screening purposes, cells were seeded in 384 well plates and left over night for attachment.
Afterwards, medium was removed and 4 % (w/v) paraformaldehyde (PFA) in PBS buffer was added to the cells for 20 minutes, incubated at room temperature. Cells were permeabilized with 0.1 % (v/v) Triton X-100 for 10 min at room temperature and washed with PBS. Cells were blocked with 3 % (w/v) bovine serum albumin (BSA) in PBS for 45 minutes at 37 °C and then incubated with anti-LC3B (PM036, MBL) or anti-p62 (PM045 or M162-3, MBL) primary antibody diluted in 0.3 % BSA (1:2000 or 1:500) for 1.5-2 hours at 37 °C. Cells were washed three times with PBS.
384 well plates were then analyzed with an automated confocal microscope Opera (PerkinElmer) enabling high throughput high content screening image analysis. […] A water immersion 60x objective was used for optical slicing and stacking (5x0.5 µm stacks). […] Signal was detected with a fast gated CCD camera. Acapella software (PerkinElmer) is an algorithm based high content imaging and analysis software used in multi-parametric multiplex assays. Acapella was used to follow cell viability (i.e. number of cells) and the number of LC3B and p62 spots per cell.
The LC3B protein is a ubiquitin-like protein that can be conjugated to phosphatidylethanolamine (PE) in the membrane of the incipient autophagosome. The nonlipidated and lipidated forms are usually referred to as LC3B-I and LC3B-II, respectively. […] Autophagic flux is often inferred on the basis of LC3B-II turnover, measured by western blot (WB) or immunofluorescence (IF) in the presence and absence of lysosomal degradation. […] Lysosomal degradation can be prevented e.g. through the use of compounds that neutralize the lysosomal pH such as Bafilomycin A1 (BafA1) or chloroquine (CQ). […] An additive or supra-additive effect in LC3B-II levels (WB) and LC3B-positive punctae numbers (IF) may indicate that the treatment enhances autophagic flux. […] This assay can be complemented by simultaneous monitoring of autophagosomal substrates or autophagosomal substrate receptors (e.g. SQSTM1/p62) by WB and/or IF. For example, an increase in LC3B-II levels in combination with the accumulation of SQSTM1/p62 is indicative of a blockage of the autophagy pathway at terminal stages.

[3] = system: LC3B; test: NMR titration (1H-15N HSQC, chemical shift perturbations); assay type: binding; settings: 10 fold excess of compound, before prolonged incubation

- IC50 [1]: 6 µM
SMILES: Brc1ccc(CSC2=NCN(Cc3cccnc3)CN2)cc1 [Compound I-1, 6-((4-bromobenzyl)thio)-3-(pyridin-3-ylmethyl)-1,2,3,4-tetrahydro-1,3,5-triazine]
- LC3B inhibition cell based Fold increase of LC3B spots [DMSO control 1.0] [2]: 4.9
- chemical shift perturbations (CSP) of LC3B [3]: does not induce any significant CSPs
